# In patent US20250332212A1, “METHOD FOR TREATING OR PREVENTING ALOPECIA” (Suzhou Mingren Pharmaceutical Biotechnology Co., Ltd., priority 2024, published 2025):
# How the values were obtained:
# type II 5α-reductase = type II 5α-reductase (Homo sapiens, UniProt P31213); details: in serum and scalp; cited from earlier work
# [1] = background statement; cited from earlier work
# [2] = system: TP-induced AGA model mice; experiment: TP-induced AGA model, Animal model III (specific inhibition of SP1 by MTA); assay type: in vivo, C57BL/6J male mice; details: MTA 0.3 mg/kg/d intraperitoneally with 1% JP1
# From the text: To verify that JP1 promotes AGA follicle regeneration through the activation of the Wnt/β-catenin signaling pathway via the MAPK/E2F1/SP1 signaling axis, the example constructed a mouse model of AGA with specific inhibition of SP1 (FIG. 15A). The specific experimental details are described according to “Animal model III” of “1. TP-induced AGA model” in “Experimental Methods”.
# To further confirm that JP1 promotes the growth of hair follicles on the back of AGA model mice through the SP1-regulated Wnt/β-catenin signaling pathway at the histomorphometric level, H&E staining was performed on the skin tissues of the model mice of Example 15 at different time points (days 4, 8, and 12 post-intervention).
# The mice used in this study were 5-week-old C57BL/6J male mice (18-20 g), which were purchased from Jiangsu Jicui Pharmachem Biotechnology Co. All the animals used in the experiments were housed in the SPF-level environment of the Medical Laboratory Animal Center of Nanjing Medical University, and the relevant animal experimental operations were approved by the Animal Ethics Committee of Nanjing Medical University. The control group was left untreated, and the other groups were injected with TP subcutaneously on their backs every day. Two weeks later, the hair on the backs of the mice was shaved with an electric razor, covering an area of 2 cm×4 cm, and then the residual hair was removed with a hair removal cream. The subcutaneous injections of TP on the shaved backs of the mice in the AGA model was continued until the end of the experimental period, and the administration of TP in each of the treatment groups was begun on the 1st day of the dehairing process.
# In addition to the normal control group (denoted as control) n=20, all mice injected subcutaneously with TP were randomly divided into the following groups (n=20): the model group (denoted as model), the 1% JP1 (skin-coated), and the 1% JP1+MTA group. […] MTA was administered at a dose of 0.3 mg/kg/d, qd, intraperitoneally, 100 μL/dose.
# Mice were weighed every two days during the experiment. Skin color was assessed against skin score charts. The mice were euthanized and treated at the end of the experiment, and skin tissues were taken from the dorsal decorticated area of the mice. Some of the tissues were fixed with 4% paraformaldehyde solution and then paraffin sections were made for H&E or immunofluorescence staining, etc., and some of the tissues were stored in the refrigerator at −80° C. for relevant molecular expression assays (qRT-PCR, Western Blot, IP, etc.).
# 8.1) Sampling and fixation: After the experiment, skin tissue was taken from the depilated area on the back of the mouse and placed in a 10 mL EP tube. 4% paraformaldehyde was added to the EP tube, and all tissues were immersed to denature and coagulate the proteins of the skin tissue. The original morphology and structure of the cells were maintained.
# 8.6) H&E staining: the sections pretreated in distilled water were put into aqueous hematoxylin solution for a few minutes for staining. The color was separated in acid water and ammonia for a few seconds each. After rinsing in running water for 1 h, the sections were placed in distilled water for a few moments. The sections were dehydrated in 70% and 90% alcohol for 10 min each, and stained in alcoholic eosin stain for 2-3 min.
# [3] = system: SP1, Wnt10a, Wnt10b and β-catenin; experiment: Immunoblotting of SP1 and downstream molecules in skin, Animal model III; assay type: in vivo, mouse; details: dorsal skin
# Protocol: 4.1) Protein extraction: 70 mg of skin tissue was placed in a 1.5 mL centrifuge tube, and 500 μL of tissue lysate RIPA containing protease inhibitor and phosphatase inhibitor was added. The tissue was placed on an ice box, pulverized by a tissue grinder, and then ultrasonically crushed to obtain a tissue suspension, which was then placed in a rotary windmill at 4° C. to be lysed for 2 h. The centrifuge was set at 12,000×g, 4° C., centrifuged for 15 min, and the supernatant was collected as the total protein.
# 5.1) Heating of protein samples: the total protein content of each tissue was 50 μg; calculate the volume of a corresponding protein sample, make up the volume with saline to 16 μL, then add 4 μL of 5×SDS sampling buffer, heat at 100° C. for 5 min, and then cool at room temperature and store at −20° C.
# 5.7) Primary antibody incubation: the cut protein bands were placed into the corresponding primary antibody and incubated at 4° C. on a shaker overnight, washed with TBST 3 times for 10 min/time.
# type II 5α-reductase, sequence (P31213 whole entry): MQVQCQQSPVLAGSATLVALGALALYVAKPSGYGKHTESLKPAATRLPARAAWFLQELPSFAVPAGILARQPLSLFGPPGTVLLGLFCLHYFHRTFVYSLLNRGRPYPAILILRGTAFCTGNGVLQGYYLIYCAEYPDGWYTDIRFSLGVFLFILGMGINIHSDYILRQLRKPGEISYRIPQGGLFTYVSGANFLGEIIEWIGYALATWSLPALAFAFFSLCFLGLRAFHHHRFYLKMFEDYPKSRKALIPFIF
compound,measurement,setting,value
CC(C)(C)NC(=O)[C@H]1CC[C@H]2[C@@H]3CC[C@H]4NC(=O)C=C[C@]4(C)[C@H]3CC[C@]12C [finasteride],reduction of double hydrogen testosterone (DHT),type II 5α-reductase,more than 60%
Nc1cc(N2CCCCC2)nc(N)[n+]1[O-] [minoxidil],adverse reactions,[1],"itchiness of the scalp, dermatitis, and localized hirsutism"
"Mithramycin A [MTA, reference compound]",effect of SP1 inhibition on hair follicle growth promotion by JP1,[2],blocked the hair follicle growth-promoting effect of JP1
same,effect of MTA on JP1-induced expression of SP1 downstream molecules,[3],block the effect of JP1 on the expression of SP1 downstream molecules
